Assays:
Format in all cases: in vivo
[1] = test system: Abutilon theophrasti (ABUTH); assay: A. Herbicidal pre-emergence efficacy, ABUTH; conditions: 1280 g/ha; scored visually after about 3 weeks vs untreated controls
Summary of the method: (§1)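 Pre-emergence soil-surface spray in sandy loam pots, WP/EC in water plus 0.5% additive, 600 L/ha. Visual % damage rating after about 3 weeks in greenhouse vs. untreated; 0% = control-like, 100% = dead plants. Rates up to 1280 g/ha.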

[2] = test system: Digitaria sanguinalis (DIGSA); assay: A. Herbicidal pre-emergence efficacy, DIGSA; conditions: scored visually after about 3 weeks vs untreated controls
Summary of the method: as §1

[3] = test system: Echinochloa crus-galli (ECHCG); assay: A. Herbicidal pre-emergence efficacy, ECHCG; conditions: 1280 g/ha; scored visually after about 3 weeks vs untreated controls
Summary of the method: as §1

[4] = test system: Kochia scoparia (KCHSC); assay: A. Herbicidal pre-emergence efficacy, KCHSC; conditions: pre-emergence
Summary of the method: as §1

[5] = test system: Lolium rigidum (LOLRI); assay: A. Herbicidal pre-emergence efficacy, LOLRI; conditions: dosage 1280 g/ha
Excerpt: (§2) Seeds of mono- and dicotyledonous weed plants were placed in plastic pots in sandy loam soil (doubly sown with one species each of mono- or dicotyledonous weed plants per pot) and covered with soil. The compounds of the invention, formulated in the form of wettable powders (WP) or as emulsion concentrates (EC), were then applied onto the surface of the covering soil as aqueous suspension or emulsion with addition of 0.5% additive at a water application rate of 600 liters per hectare (converted). After the treatment, the pots were placed in a greenhouse and kept under good growth conditions for the test plants. After about 3 weeks, the efficacy of the preparations was scored visually in comparison with untreated controls as percentages.
(§3) For example, • 100% efficacy=plants have died, • 0% efficacy=like untreated control plants.
(§4) Tables A1a to A12c below show the effects of selected compounds of the general formula (I) according to table 1 on various harmful plants at an application rate corresponding to 1280 g/ha or less, which were obtained by the experimental procedure mentioned above.

[6] = test system: Matricaria inodora (MATIN); assay: A. Herbicidal pre-emergence efficacy, MATIN
Excerpt: as §2, §3, §4

[7] = test system: Poa annua (POAAN); assay: A. Herbicidal pre-emergence efficacy, POAAN
Summary of the method: as §1

[8] = test system: Setaria viridis (SETVI); assay: A. Herbicidal pre-emergence efficacy, SETVI
Summary of the method: as §1

[9] = test system: Stellaria media (STEME); assay: A. Herbicidal pre-emergence efficacy, STEME
Summary of the method: as §1

[10] = test system: Veronica persica (VERPE); assay: A. Herbicidal pre-emergence efficacy, VERPE
Summary of the method: as §1

[11] = test system: Amaranthus retroflexus (AMARE); assay: A. Herbicidal pre-emergence efficacy, AMARE
Summary of the method: as §1

[12] = test system: Abutilon theophrasti (ABUTH); assay: B. Herbicidal post-emergence efficacy, ABUTH; conditions: rated visually after about 3 weeks
Summary of the method: (§5)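 Weeds grown in sandy loam in greenhouse pots, sprayed at one-leaf stage (2–3 weeks after sowing) with WP or EC formulations as aqueous suspension/emulsion plus 0.5% additive at 600 L/ha water, rates up to 1280 g/ha. Visual efficacy rated about 3 weeks later versus untreated controls (0% = like control, 100% = dead).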

[13] = test system: Digitaria sanguinalis (DIGSA); assay: B. Herbicidal post-emergence efficacy, DIGSA; conditions: rated visually after about 3 weeks
Description: (§6) Seeds of mono- and dicotyledonous weed plants were placed in plastic pots in sandy loam soil (doubly sown with in each case one species of mono- or dicotyledonous weed plants per pot), covered with soil and cultivated in a greenhouse under controlled growth conditions. 2 to 3 weeks after sowing, the test plants were treated at the one-leaf stage. The compounds of the invention, formulated in the form of wettable powders (WP) or as emulsion concentrates (EC), were applied onto the green parts of the plants as aqueous suspension or emulsion with addition of 0.5% additive at a water application rate of 600 liters per hectare (converted). After the test plants had been kept in the greenhouse under optimum growth conditions for about 3 weeks, the activity of the preparations was rated visually in comparison to untreated controls.
(§7) For example, • 100% efficacy=plants have died, • 0% efficacy=like untreated control plants
(§8) Tables B1a to B12c below show the effects of selected inventive compounds of the general formula (I) according to table 1 on various harmful plants at an application rate corresponding to 1280 g/ha or less, which were obtained by the experimental procedure mentioned above.

[14] = test system: Kochia scoparia (KCHSC); assay: B. Herbicidal post-emergence efficacy, KCHSC; conditions: for Post-emergence efficacy against KCHSC in %: rated visually after about 3 weeks; for Post-emergence efficacy against KCHSC: 1280 g/ha
Summary of the method: as §5

[15] = test system: Poa annua (POAAN); assay: B. Herbicidal post-emergence efficacy, POAAN; conditions: 1280 g/ha
Summary of the method: as §5

[16] = test system: Setaria viridis (SETVI); assay: B. Herbicidal post-emergence efficacy, SETVI; conditions: 1280 g/ha
Description: as §6, §7, §8

[17] = test system: Stellaria media (STEME); assay: B. Herbicidal post-emergence efficacy, STEME
Summary of the method: as §5

[18] = test system: Veronica persica (VERPE); assay: B. Herbicidal post-emergence efficacy, VERPE
Summary of the method: as §5

[19] = test system: Amaranthus retroflexus (AMARE); assay: B. Herbicidal post-emergence efficacy, AMARE
Summary of the method: as §5

[20] = test system: Echinochloa crus-galli (ECHCG); assay: B. Herbicidal post-emergence efficacy, ECHCG; conditions: 1280 g/ha, rated visually after about 3 weeks
Summary of the method: as §5

Compound	Pre-emergence efficacy against ABUTH [1] [%]	Pre-emergence efficacy against DIGSA ([2]; 320 g/ha) [%]	Pre-emergence efficacy against DIGSA ([2]; 1280 g/ha) [%]	Pre-emergence efficacy against ECHCG [3] [%]	Pre-emergence efficacy against KCHSC ([4]; dosage 320 g/ha) [%]	Pre-emergence efficacy against KCHSC ([4]; dosage 1280 g/ha) [%]	Pre-emergence efficacy against POAAN ([7]; dosage 1280 g/ha) [%]	Pre-emergence efficacy against SETVI ([8]; dosage 320 g/ha) [%]	Pre-emergence efficacy against SETVI ([8]; dosage 1280 g/ha) [%]	Pre-emergence efficacy against STEME ([9]; dosage 320 g/ha) [%]	Pre-emergence efficacy against STEME ([9]; dosage 1280 g/ha) [%]	Pre-emergence efficacy against VERPE in % ([10]; 320 g/ha) [%]	Pre-emergence efficacy against VERPE in % ([10]; 1280 g/ha) [%]	Pre-emergence efficacy against AMARE in % ([11]; 80 g/ha) [%]	Pre-emergence efficacy against AMARE in % ([11]; 320 g/ha) [%]	Pre-emergence efficacy against AMARE in % ([11]; 1280 g/ha) [%]	Post-emergence efficacy against ABUTH in % ([12]; 320 g/ha) [%]	Post-emergence efficacy against ABUTH in % ([12]; 1280 g/ha) [%]	Post-emergence efficacy against DIGSA in % ([13]; 1280 g/ha) [%]	Post-emergence efficacy against KCHSC in % ([14]; 320 g/ha) [%]	also measured
N#Cc1cc(Cl)cnc1Oc1ccccc1OS(=O)(=O)CCCCl [Example I-59]	90	100	100	100	100	100	100	100	100	100	100	90	100	100	100	100	90	90	90	90	Pre-emergence efficacy against LOLRI [5]: 90%; Pre-emergence efficacy against MATIN ([6]; 320 g/ha, scored visually after about 3 weeks vs untreated controls): 90%; Pre-emergence efficacy against MATIN ([6]; pre-emergence, dosage 1280 g/ha): 100%; Pre-emergence efficacy against POAAN ([7]; dosage 320 g/ha): 100%; Pre-emergence efficacy against STEME ([9]; dosage 80 g/ha): 90%; Post-emergence efficacy against DIGSA in % ([13]; 320 g/ha): 90%; Post-emergence efficacy against KCHSC [14]: 90%; Post-emergence efficacy against POAAN [15]: 90%; Post-emergence efficacy against SETVI [16]: 90%; Post-emergence efficacy against STEME ([17]; 320 g/ha): 90%; Post-emergence efficacy against STEME ([17]; 1280 g/ha): 90%; Post-emergence efficacy against VERPE ([18]; 80 g/ha): 90%; Post-emergence efficacy against VERPE ([18]; 320 g/ha): 90%; Post-emergence efficacy against VERPE ([18]; 1280 g/ha): 90%; Post-emergence efficacy against AMARE ([19]; 80 g/ha): 90%; Post-emergence efficacy against AMARE ([19]; 320 g/ha): 90%; Post-emergence efficacy against AMARE ([19]; 1280 g/ha): 90%
N#Cc1cccc(Oc2ncc(Cl)cn2)c1OS(=O)(=O)CC1CC(F)(F)C1 [Example I-79]	90	100	100	90	90	100	90	90	100	90	100	100	100	90	100	100	90	100	100	100	Post-emergence efficacy against DIGSA in % ([13]; 320 g/ha): 90%; Post-emergence efficacy against ECHCG in % [20]: 100%; Post-emergence efficacy against KCHSC in % ([14]; 80 g/ha): 90%; Post-emergence efficacy against KCHSC [14]: 100%; Post-emergence efficacy against SETVI [16]: 90%; Post-emergence efficacy against STEME ([17]; 80 g/ha): 90%; Post-emergence efficacy against STEME ([17]; 320 g/ha): 100%; Post-emergence efficacy against STEME ([17]; 1280 g/ha): 100%; Post-emergence efficacy against VERPE ([18]; 80 g/ha): 100%; Post-emergence efficacy against VERPE ([18]; 320 g/ha): 100%; Post-emergence efficacy against VERPE ([18]; 1280 g/ha): 100%; Post-emergence efficacy against AMARE ([19]; 80 g/ha): 90%; Post-emergence efficacy against AMARE ([19]; 320 g/ha): 100%; Post-emergence efficacy against AMARE ([19]; 1280 g/ha): 100%
N#Cc1cccc(Oc2ncc(Cl)cn2)c1OS(=O)(=O)CCCCl [Example I-80]	90	90	100	90	90	100	90	90	100	100	100	90	100	90	90	100	90	100	90	90	Pre-emergence efficacy against POAAN ([7]; dosage 320 g/ha): 90%; Post-emergence efficacy against ABUTH in % ([12]; 80 g/ha): 90%; Post-emergence efficacy against ECHCG in % [20]: 100%; Post-emergence efficacy against KCHSC [14]: 90%; Post-emergence efficacy against POAAN [15]: 90%; Post-emergence efficacy against SETVI [16]: 90%; Post-emergence efficacy against STEME ([17]; 80 g/ha): 90%; Post-emergence efficacy against STEME ([17]; 320 g/ha): 100%; Post-emergence efficacy against STEME ([17]; 1280 g/ha): 100%; Post-emergence efficacy against VERPE ([18]; 80 g/ha): 90%; Post-emergence efficacy against VERPE ([18]; 320 g/ha): 90%; Post-emergence efficacy against VERPE ([18]; 1280 g/ha): 100%; Post-emergence efficacy against AMARE ([19]; 80 g/ha): 100%; Post-emergence efficacy against AMARE ([19]; 320 g/ha): 100%; Post-emergence efficacy against AMARE ([19]; 1280 g/ha): 100%

Source: patent US20240174618A1, “SUBSTITUTED (2-HETEROARYLOXYPHENYL)SULFONATES, SALTS THEREOF AND THEIR USE AS HERBICIDAL AGENTS” (Bayer Aktiengesellschaft, priority 2021, published 2024)
